From US9365522B2, “Pyrazole amide derivative” (AMGEN INC., priority 2015, dated 2016)

Target: T1, human RORγ-LBD (Homo sapiens, UniProt P51449)
T1 construct: made in house; host or cells: E. coli (BL-21)
T1 sequence (P51449 262-518): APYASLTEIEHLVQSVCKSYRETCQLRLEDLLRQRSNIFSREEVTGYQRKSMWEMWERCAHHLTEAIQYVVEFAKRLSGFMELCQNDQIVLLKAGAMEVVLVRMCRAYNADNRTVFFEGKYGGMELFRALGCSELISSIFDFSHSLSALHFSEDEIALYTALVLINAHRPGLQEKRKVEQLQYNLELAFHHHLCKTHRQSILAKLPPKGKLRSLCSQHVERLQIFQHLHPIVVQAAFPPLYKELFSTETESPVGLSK
Test: ROR gamma coactivator peptide recruitment Alphascreen assay (RORγ-LBD binding to GRIP1 coactivator peptide)
Type: biochemical
Details: 5 nM human RORγ-LBD, 30 nM 7-β-hydroxycholesterol, 50 nM biotinylated GRIP1 coactivator peptide, overnight incubation at room temperature; read-out: result (pIC50, RORγ coactivator peptide recruitment Alphascreen assay) (converted)
How it was run: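 Alphascreen proximity read-out after overnight room-temperature incubation, yielding pIC50 from 1-in-2 compound series (2.5% DMSO final). Mixture: 50 nM biotin-GRIP1 peptide, 30 nM 7-β-hydroxycholesterol agonist, 5 nM recombinant 6×His:Flag human RORγ-LBD (aa 262-518), 50 mM HEPES pH 7.4.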

Structure (SMILES) | IC50
CC(C)(C)CN(CC(=O)c1c(Cl)cnc2ccccc12)C(=O)c1cnn([C@H]2CC[C@](C)(C(=O)O)CC2)c1C(F)(F)F [Example 538, trans-4-(4-((2-(3-chloro-4-quinolinyl)-2-oxoethyl)(2,2-dimethylpropyl)carbamoyl)-5-(trifluoromethyl)-1H-pyrazol-1-yl)-1-methylcyclohexanecarboxylic acid] | 112 nM
C[C@H]1C[C@@H](n2ncc(C(=O)N(CC(=O)c3c(Cl)cncc3Cl)CC(C)(C)C)c2C(F)(F)F)CC[C@]1(C)C(=O)O [Example 873, (1S,2S,4S)-4-(4-((2-(3,5-dichloro-4-pyridinyl)-2-oxoethyl)(2,2-dimethylpropyl)carbamoyl)-5-(trifluoromethyl)-1H-pyrazol-1-yl)-1,2-dimethylcyclohexanecarboxylic acid] | 5.25 nM
CC1(C)C[C@@H]1N(CC(=O)c1c(Cl)cncc1Cl)C(=O)c1cnn([C@H]2CC[C@H](C(=O)O)CC2)c1C(F)(F)F [Example 656, trans-4-(4-((2-(3,5-dichloro-4-pyridinyl)-2-oxoethyl)((1S)-2,2-dimethylcyclopropyl)carbamoyl)-5-(trifluoromethyl)-1H-pyrazol-1-yl)cyclohexanecarboxylic acid] | 186 nM
CC(C)(C)CN(CC(=O)c1c(Cl)cncc1Cl)C(=O)c1cnn([C@H]2CC[C@@H](CS(C)(=O)=O)CC2)c1C(F)(F)F [Example 841, N-(2-(3,5-dichloro-4-pyridinyl)-2-oxoethyl)-N-(2,2-dimethylpropyl)-1-(cis-4-((methylsulfonyl)methyl)cyclohexyl)-5-(trifluoromethyl)-1H-pyrazole-4-carboxamide] | 195 nM
CC1(C)C[C@H]1CN(CCc1c(Cl)cncc1Cl)C(=O)c1cnn([C@H]2CC[C@H](C(=O)O)CC2)c1C(F)(F)F [Example 554, trans-4-(4-((2-(3,5-dichloro-4-pyridinyl)ethyl)(((1R)-2,2-dimethylcyclopropyl)methyl)carbamoyl)-5-(trifluoromethyl)-1H-pyrazol-1-yl)cyclohexanecarboxylic acid] | 7.08 nM
Cc1cc(Cl)c(C(=O)CN(CC(C)(C)C)C(=O)c2cnn([C@H]3CC[C@H](CC(=O)O)CC3)c2C(F)(F)F)c(Cl)n1 [Example 740, (trans-4-(4-((2-(2,4-dichloro-6-methyl-3-pyridinyl)-2-oxoethyl)(2,2-dimethylpropyl)carbamoyl)-5-(trifluoromethyl)-1H-pyrazol-1-yl)cyclohexyl)acetic acid] | 14.5 nM
CC1C[C@@H](n2ncc(C(=O)N(CC(=O)c3c(Cl)cncc3Cl)CC(C)(C)C)c2C(F)(F)F)CC[C@]1(C)C(=O)O (stereo in doubt) [Example 861, (1S,2S,4S)-4-(4-((2-(3,5-dichloro-4-pyridinyl)-2-oxoethyl)(2,2-dimethylpropyl)carbamoyl)-5-(trifluoromethyl)-1H-pyrazol-1-yl)-1,2-dimethylcyclohexanecarboxylic acid] | 4.79 nM
Cc1cc(Cl)c(C(=O)CN(C(=O)c2cnn([C@H]3CC[C@](C)(C(=O)O)CC3)c2C(F)(F)F)[C@H]2C[C@@H]3[C@H](C2)C3(C)C)c(Cl)n1 [Example 714, trans-4-(4-((2-(2,4-dichloro-6-methyl-3-pyridinyl)-2-oxoethyl)((1R,3r,5S)-6,6-dimethylbicyclo[3.1.0]hex-3-yl)carbamoyl)-5-(trifluoromethyl)-1H-pyrazol-1-yl)-1-methylcyclohexanecarboxylic acid] | 3.55 nM
C[C@H]1C[C@H](n2ncc(C(=O)N(CC(=O)c3c(Cl)cncc3Cl)C[C@@H]3CCC(C)(C)O3)c2C(F)(F)F)CCC1C(=O)O (stereo in doubt) [Example 773, (1S,2S,4R)-4-(4-((2-(3,5-dichloro-4-pyridinyl)-2-oxoethyl)(((2S)-5,5-dimethyltetrahydro-2-furanyl)methyl)carbamoyl)-5-(trifluoromethyl)-1H-pyrazol-1-yl)-2-methylcyclohexanecarboxylic acid] | 81.3 nM
CC1(CN(CCc2c(Cl)cncc2Cl)C(=O)c2cnn([C@H]3CC[C@@H](C(=O)O)CC3)c2C(F)(F)F)CCC1 [Example 560, cis-4-(4-((2-(3,5-dichloro-4-pyridinyl)ethyl)((1-methylcyclobutyl)methyl)carbamoyl)-5-(trifluoromethyl)-1H-pyrazol-1-yl)cyclohexanecarboxylic acid] | 295 nM
C[C@@H]1C[C@@H](n2ncc(C(=O)N(CC(=O)c3c(Cl)cccc3Cl)CC3(C(F)(F)F)CC3)c2C(F)(F)F)CC[C@@H]1C(=O)O [Example 811, (1S,2R,4S)-4-(4-((2-(2,6-dichlorophenyl)-2-oxoethyl)((1-(trifluoromethyl)cyclopropyl)methyl)carbamoyl)-5-(trifluoromethyl)-1H-pyrazol-1-yl)-2-methylcyclohexanecarboxylic acid] | 1.78 nM
CC1(C)[C@@H]2C[C@H](N(CC(=O)c3c(Cl)cccc3Cl)C(=O)c3cnn([C@H]4C[C@@H](CC(=O)O)C4)c3C(F)(F)F)C[C@@H]21 (single isomer, unassigned) [Example 858] | 2 nM

Results, then the molecule that gave them:

IC50 | Structure (SMILES)
8.13 nM | C[C@]1(C(=O)O)CC[C@H](n2ncc(C(=O)N(CC(=O)c3c(Cl)cncc3Cl)C3CC4(CCC4)C3)c2C(F)(F)F)CC1 [Example 633, trans-4-(4-((2-(3,5-dichloro-4-pyridinyl)-2-oxoethyl)(spiro[3.3]hept-2-yl)carbamoyl)-5-(trifluoromethyl)-1H-pyrazol-1-yl)-1-methylcyclohexanecarboxylic acid]
2.09 nM | Cc1cc(Cl)c(C(=O)CN(CC2(C)CC2)C(=O)c2cnn([C@H]3CC[C@@](C)(C(=O)O)CC3)c2C(F)(F)F)c(Cl)c1 [Example 717]
234 nM | CC1(CN(CC(=O)c2c(Cl)cncc2Cl)C(=O)c2cnn([C@H]3CC[C@](C)(C(=O)O)CC3)c2C(F)(F)F)COC1 [Example 675, trans-4-(4-((2-(3,5-dichloro-4-pyridinyl)-2-oxoethyl)((3-methyl-3-oxetanyl)methyl)carbamoyl)-5-(trifluoromethyl)-1H-pyrazol-1-yl)-1-methylcyclohexanecarboxylic acid]
100 nM | CC1(C)CC[C@@H]1N(CC(=O)c1c(Cl)cncc1Cl)C(=O)c1cnn([C@H]2CC[C@](C)(C(=O)O)CC2)c1C(F)(F)F [Example 578, trans-4-(4-((2-(3,5-dichloro-4-pyridinyl)-2-oxoethyl)((1S)-2,2-dimethylcyclobutyl)carbamoyl)-5-(trifluoromethyl)-1H-pyrazol-1-yl)-1-methylcyclohexanecarboxylic acid]
9.55 nM | Cc1cc(Cl)c(C(=O)CN(C(=O)c2cnn([C@H]3CC[C@](C)(C(=O)O)CC3)c2C(F)(F)F)[C@@H]2CCC23CCC3)c(Cl)c1 [Example 722, trans-4-(4-((2-(2,6-dichloro-4-methylphenyl)-2-oxoethyl)((1R)-spiro[3.3]hept-1-yl)carbamoyl)-5-(trifluoromethyl)-1H-pyrazol-1-yl)-1-methylcyclohexanecarboxylic acid]
4.37 nM | CC(C)(C)CN(CC(=O)c1c(Cl)ccc(F)c1Cl)C(=O)c1cnn([C@H]2CC[C@](C)(C(=O)O)CC2)c1C(F)(F)F [Example 764, trans-4-(4-((2-(2,6-dichloro-3-fluorophenyl)-2-oxoethyl)(2,2-dimethylpropyl)carbamoyl)-5-(trifluoromethyl)-1H-pyrazol-1-yl)-1-methylcyclohexanecarboxylic acid]
1.62 nM | CC1(CN(CC(=O)c2c(Cl)cc(F)cc2Cl)C(=O)c2cnn([C@H]3CC[C@](C)(C(=O)O)CC3)c2C(F)(F)F)CCCCC1 [Example 696, trans-4-(4-((2-(2,6-dichloro-4-fluorophenyl)-2-oxoethyl)((1-methylcyclohexyl)methyl)carbamoyl)-5-(trifluoromethyl)-1H-pyrazol-1-yl)-1-methylcyclohexanecarboxylic acid]
60.3 nM | C[C@]1(C(=O)O)CC[C@H](n2ncc(C(=O)N(CC(=O)c3c(Cl)cncc3Cl)[C@@H]3CCC34CCC4)c2C(F)(F)F)CC1 [Example 749, trans-4-(4-((2-(3,5-dichloro-4-pyridinyl)-2-oxoethyl)((1R)-spiro[3.3]hept-1-yl)carbamoyl)-5-(trifluoromethyl)-1H-pyrazol-1-yl)-1-methylcyclohexanecarboxylic acid]
39.8 nM | C[C@]12CC[C@](CN(CC(=O)c3c(Cl)cccc3Cl)C(=O)c3cnn([C@H]4CC[C@](C)(C(=O)O)CC4)c3C(F)(F)F)(CC1)C2 [Example 612, trans-4-(4-((2-(2,6-dichlorophenyl)-2-oxoethyl)(((1r,4r)-4-methylbicyclo[2.2.1]hept-1-yl)methyl)carbamoyl)-5-(trifluoromethyl)-1H-pyrazol-1-yl)-1-methylcyclohexanecarboxylic acid]
6760 nM | C[C@]1(C(=O)O)CC[C@H](n2ncc(C(=O)N(CC(=O)c3c(Cl)cccc3Cl)CC3CCC4(CC3)CC4)c2C(F)(F)F)CC1 [Example 569, trans-4-(4-((2-(2,6-dichlorophenyl)-2-oxoethyl)(spiro[25]oct-6-ylmethyl)carbamoyl)-5-(trifluoromethyl)-1H-pyrazol-1-yl)-1-methylcyclohexanecarboxylic acid]
1.38 nM | CC1(CN(CC(=O)c2c(Cl)cncc2Cl)C(=O)c2cnn([C@H]3CC[C@H](C(=O)O)C(C)(C)C3)c2C(F)(F)F)CCC1 [Example 825, (1S,4S)-4-(4-((2-(3,5-dichloro-4-pyridinyl)-2-oxoethyl)((1-methylcyclobutyl)methyl)carbamoyl)-5-(trifluoromethyl)-1H-pyrazol-1-yl)-2,2-dimethylcyclohexanecarboxylic acid]
